Measured values taken from patent US12139487B2, “Compounds and uses thereof” (Foghorn Therapeutics Inc., priority 2022, dated 2024).

What was measured:
BRG-1 = molecular target: T1, BRG-1 (Homo sapiens, UniProt P51532); assay: ATPase catalytic activity assay (ADP-Glo), BRG-1; format: biochemical; settings: Table 10, read-out: BRG1 IC50
T1 construct: made in house; host or cells: High Five insect cells
Procedure, shortened: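 Biochemical ADP-Glo assay, BRG-1. Post-reaction: ATP depletion reagent, 40 min RT; ADP→ATP conversion/detection reagent, 60 min RT; luminescence read on plate luminometer.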

BRM = molecular target: T2, BRM (Homo sapiens, UniProt P51531); assay: ATPase catalytic activity assay (ADP-Glo), BRM; format: biochemical; settings: Table 10; for Ratio (BRG1 IC50 (μM) divided by BRM IC50 (μM)): ATPase assay, selectivity BRG1/BRM; for IC50: ATPase catalytic activity assay (ADP-Glo)
T2 construct: made in house; host or cells: High Five insect cells
T2 sequence (P51531 whole entry): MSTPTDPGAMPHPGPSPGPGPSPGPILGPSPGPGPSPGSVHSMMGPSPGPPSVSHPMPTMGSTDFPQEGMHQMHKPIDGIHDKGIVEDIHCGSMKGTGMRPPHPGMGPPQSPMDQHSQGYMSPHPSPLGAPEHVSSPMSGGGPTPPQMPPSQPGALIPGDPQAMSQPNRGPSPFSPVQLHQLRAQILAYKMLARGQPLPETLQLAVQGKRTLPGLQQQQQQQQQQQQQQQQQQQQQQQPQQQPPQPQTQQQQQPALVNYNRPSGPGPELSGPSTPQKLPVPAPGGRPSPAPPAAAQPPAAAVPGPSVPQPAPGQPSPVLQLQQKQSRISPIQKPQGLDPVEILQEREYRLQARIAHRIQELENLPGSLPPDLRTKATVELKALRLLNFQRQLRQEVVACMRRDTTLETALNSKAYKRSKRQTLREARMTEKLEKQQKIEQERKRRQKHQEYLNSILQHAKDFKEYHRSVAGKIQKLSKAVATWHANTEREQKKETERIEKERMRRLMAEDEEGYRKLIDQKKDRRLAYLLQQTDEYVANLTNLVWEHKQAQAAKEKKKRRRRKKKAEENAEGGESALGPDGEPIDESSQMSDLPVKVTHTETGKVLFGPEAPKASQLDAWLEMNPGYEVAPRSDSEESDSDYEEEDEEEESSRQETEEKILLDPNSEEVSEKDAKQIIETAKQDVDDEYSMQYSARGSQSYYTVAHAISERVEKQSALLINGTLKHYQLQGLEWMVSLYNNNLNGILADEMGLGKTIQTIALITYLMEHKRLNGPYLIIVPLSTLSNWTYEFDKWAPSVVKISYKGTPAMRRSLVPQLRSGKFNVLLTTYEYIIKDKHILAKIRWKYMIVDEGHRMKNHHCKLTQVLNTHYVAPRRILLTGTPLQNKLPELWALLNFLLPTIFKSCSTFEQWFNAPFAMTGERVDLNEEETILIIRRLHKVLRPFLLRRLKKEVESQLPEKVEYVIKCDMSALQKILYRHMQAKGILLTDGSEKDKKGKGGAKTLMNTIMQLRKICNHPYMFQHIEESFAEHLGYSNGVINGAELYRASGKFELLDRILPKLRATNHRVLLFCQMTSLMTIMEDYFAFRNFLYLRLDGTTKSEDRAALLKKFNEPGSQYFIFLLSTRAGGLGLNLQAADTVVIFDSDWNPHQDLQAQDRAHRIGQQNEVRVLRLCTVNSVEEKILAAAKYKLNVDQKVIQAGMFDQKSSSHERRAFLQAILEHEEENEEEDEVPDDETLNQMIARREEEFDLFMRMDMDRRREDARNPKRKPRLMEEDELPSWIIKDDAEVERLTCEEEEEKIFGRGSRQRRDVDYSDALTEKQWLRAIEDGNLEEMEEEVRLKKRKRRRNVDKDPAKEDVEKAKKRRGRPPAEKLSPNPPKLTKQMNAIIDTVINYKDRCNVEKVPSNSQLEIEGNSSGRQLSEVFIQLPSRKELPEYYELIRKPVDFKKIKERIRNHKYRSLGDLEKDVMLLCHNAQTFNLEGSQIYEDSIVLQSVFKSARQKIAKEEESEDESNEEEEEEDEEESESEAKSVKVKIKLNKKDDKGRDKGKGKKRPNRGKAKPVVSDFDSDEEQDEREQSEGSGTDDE
Procedure, shortened: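 Reaction holds 30 nM BRM, 20 nM salmon sperm DNA and 400 μM ATP in 20 mM Tris pH 8, 20 mM MgCl2, 50 mM NaCl, 0.1% Tween-20, 1 mM DTT. Incubated 1 h at room temperature. ADP formed is detected by ADP-Glo luminescence.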

T1 sequence (P51532 whole entry): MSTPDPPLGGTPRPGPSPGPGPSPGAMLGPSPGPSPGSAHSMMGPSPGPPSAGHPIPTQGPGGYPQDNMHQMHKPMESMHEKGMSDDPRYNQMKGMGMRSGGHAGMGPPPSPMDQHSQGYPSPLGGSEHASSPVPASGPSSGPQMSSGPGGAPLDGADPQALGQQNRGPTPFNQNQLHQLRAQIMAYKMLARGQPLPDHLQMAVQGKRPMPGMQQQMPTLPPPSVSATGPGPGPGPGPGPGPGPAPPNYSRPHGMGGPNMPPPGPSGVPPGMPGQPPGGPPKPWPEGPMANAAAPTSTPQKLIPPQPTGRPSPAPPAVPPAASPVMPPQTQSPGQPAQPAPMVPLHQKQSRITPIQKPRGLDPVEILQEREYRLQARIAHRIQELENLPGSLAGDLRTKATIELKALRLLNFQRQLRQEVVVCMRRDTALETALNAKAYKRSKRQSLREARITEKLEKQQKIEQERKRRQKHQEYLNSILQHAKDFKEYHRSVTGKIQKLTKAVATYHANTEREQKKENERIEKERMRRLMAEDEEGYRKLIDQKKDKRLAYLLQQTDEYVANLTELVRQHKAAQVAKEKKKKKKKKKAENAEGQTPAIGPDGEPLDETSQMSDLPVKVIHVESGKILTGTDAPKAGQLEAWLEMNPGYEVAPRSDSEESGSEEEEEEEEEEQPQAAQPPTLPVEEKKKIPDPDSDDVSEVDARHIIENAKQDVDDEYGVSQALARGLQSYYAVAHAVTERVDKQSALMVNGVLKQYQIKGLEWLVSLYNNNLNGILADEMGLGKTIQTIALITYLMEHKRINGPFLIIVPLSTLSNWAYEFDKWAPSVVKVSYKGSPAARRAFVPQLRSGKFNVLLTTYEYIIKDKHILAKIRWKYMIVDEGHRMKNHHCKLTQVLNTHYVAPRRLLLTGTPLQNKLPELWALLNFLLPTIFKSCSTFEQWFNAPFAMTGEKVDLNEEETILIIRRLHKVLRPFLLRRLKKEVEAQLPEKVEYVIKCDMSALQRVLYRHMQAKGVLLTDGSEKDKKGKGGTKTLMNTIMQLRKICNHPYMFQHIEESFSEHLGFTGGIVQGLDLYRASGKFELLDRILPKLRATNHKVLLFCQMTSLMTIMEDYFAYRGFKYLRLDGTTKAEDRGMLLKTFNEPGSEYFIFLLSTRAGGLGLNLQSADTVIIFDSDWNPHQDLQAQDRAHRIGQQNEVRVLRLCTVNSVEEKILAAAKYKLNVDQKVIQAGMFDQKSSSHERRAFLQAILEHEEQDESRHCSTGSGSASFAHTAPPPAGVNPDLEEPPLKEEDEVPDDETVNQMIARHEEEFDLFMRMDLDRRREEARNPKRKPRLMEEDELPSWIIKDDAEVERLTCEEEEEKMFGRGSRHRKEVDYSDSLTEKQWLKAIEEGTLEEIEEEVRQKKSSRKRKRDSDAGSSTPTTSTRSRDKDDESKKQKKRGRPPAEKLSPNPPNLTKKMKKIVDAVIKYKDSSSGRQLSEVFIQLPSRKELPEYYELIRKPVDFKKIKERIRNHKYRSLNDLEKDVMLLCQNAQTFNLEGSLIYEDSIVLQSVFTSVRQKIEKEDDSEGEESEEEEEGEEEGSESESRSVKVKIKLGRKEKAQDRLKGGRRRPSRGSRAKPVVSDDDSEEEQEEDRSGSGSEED

Compound	IC50 (BRG-1) [nM]	Ratio (BRG1 IC50 (μM) divided by BRM IC50 (μM)) (BRM)	IC50 (BRM) [nM]
O=C(NCc1cc2nc(-c3cccc([C@H]4CC4(F)F)n3)ccc2cn1)c1cc(F)c2c(c1)S(=O)(=O)[C@@H](F)CCO2 [Compound 250]	220	26.90	8
COc1nc([C@@](C)(F)C(F)F)ccc1-c1ccc2cnc(CNC(=O)c3cc(F)c4c(c3)S(=O)(=O)[C@@H](F)COC4)cc2n1 [Compound 251]	126	15.83	8
O=C(NCc1cc2nc(-c3cccc(C4CC4)n3)ccc2cn1)c1cc(F)c2c(c1)S(=O)(=O)[C@@H](F)CCO2 [Compound 252]	219	23.94	8
O=C(NCc1cc2nc(-c3cccc([C@@H]4CC4(F)F)n3)ccc2cn1)c1cc(F)c2c(c1)S(=O)(=O)[C@@H](F)COC2 [Compound 253]	171	22.99	8
O=C(NCc1cc2nc(N3CCOc4ccc(N5CC(F)(F)C5)nc43)ccc2cn1)c1cc(F)c2c(c1)S(=O)(=O)[C@@H](F)CCO2 [Compound 254]	190	21.58	8
C[C@@H]1CN(c2cccc(-c3ccc4cnc(CNC(=O)c5cc(Br)c6c(c5)S(=O)(=O)[C@@H](F)CCO6)cc4n3)n2)C[C@H](C)O1 [Compound 255]	207	23.96	8.1
CCn1ccc2c(-c3ccc4cnc(CNC(=O)c5cc(F)c6c(c5)S(=O)(=O)[C@@H](F)CCO6)cc4n3)ccnc21 [Compound 256]	112	13.83	8.1
COc1nc([C@@H](C)F)ccc1-c1ccc2cnc(CNC(=O)c3cc(F)c4c(c3)S(=O)(=O)[C@@H](F)CCO4)cc2n1 [Compound 259]	274	27.15	8.3
C[C@H](NC(=O)c1cc(F)c2c(c1)S(=O)(=O)[C@@H](F)COC2)c1cc2nc(N3CCOc4ccc(C(F)F)nc43)ccc2cn1 [Compound 260]	288	34.05	8.5
C[C@H](NC(=O)c1cc(F)c2c(c1)S(=O)(=O)[C@@H](F)CCO2)c1cc2nc(N3CCOc4cc(N5CCC5)cnc43)ccc2cn1 [Compound 261]	242	25.34	8.5
O=C(NCc1cc2nc(N3CCCc4c(OC5CC5)ncc(F)c43)ccc2cn1)c1cc(F)c2c(c1)S(=O)(=O)[C@@H](F)CCO2 [Compound 262]	166	19.49	8.5
CC1CN(c2ccnc3c2OCCN3c2ccc3cnc(CNC(=O)c4cc(F)c5c(c4)S(=O)(=O)[C@@H](F)CCO5)cc3n2)C1 [Compound 263]	89.7	10.51	8.5
O=C(NCc1cc2nc(N3CCOc4cc(C(F)(F)F)cnc43)ccc2cn1)c1cc(F)c2c(c1)S(=O)(=O)[C@@H](F)CCO2 [Compound 265]	101	11.56	8.7
COc1cc(F)ccc1-c1ccc2cnc(CNC(=O)c3cc(F)c4c(c3)S(=O)(=O)[C@@H](F)CCO4)cc2n1 [Compound 266]	154	18.84	8.7
Cc1cc2c(-c3ccc4cnc(CNC(=O)c5cc(F)c6c(c5)S(=O)(=O)[C@@H](F)CCO6)cc4n3)ccnc2n1C [Compound 267]	91.8	10.49	8.8
O=C(NCc1cc2cc(-c3cccc([C@@H]4CC4(F)F)n3)ccc2cn1)c1cc(F)c2c(c1)S(=O)(=O)[C@@H](F)CCO2 [Compound 268]	199	22.51	8.8
C[C@H]1N(c2cnc3c(c2)OCCN3c2ccc3cnc(CNC(=O)c4cc(F)c5c(c4)S(=O)(=O)[C@@H](F)CCO5)cc3n2)CC1(F)F [Compound 269]	110	11.77	8.9

Compound	IC50 (BRG-1) [nM]	Ratio (BRG1 IC50 (μM) divided by BRM IC50 (μM)) (BRM)	IC50 (BRM) [nM]
COc1cccc(-c2ccc3cnc(CNC(=O)c4cc(F)c5c(c4)S(=O)(=O)[C@@H](F)COC5)cc3n2)n1 [Compound 270]	174	22.02	8.9
COCCOc1cnc2c(c1)CCCN2c1ccc2cnc(CNC(=O)c3cc(F)c4c(c3)S(=O)(=O)[C@@H](F)CCO4)cc2n1 [Compound 271]	294	29.78	8.9
O=C(NCc1cc2nc(N3CCCc4ccc(C(F)F)nc43)ccc2cn1)c1cc(Cl)c2c(c1)S(=O)(=O)[C@@H](F)CCO2 [Compound 272]	199	23.60	8.9
COc1ccc(-c2ccc3cnc(CNC(=O)c4cc(F)c5c(c4)S(=O)(=O)[C@@H](F)CCO5)cc3n2)nc1[C@@H]1CC1(F)F [Compound 273]	210	23.61	8.9
C[C@@H](F)c1cnc2c(c1)OCCN2c1ccc2cnc(CNC(=O)c3cc(F)c4c(c3)S(=O)(=O)[C@@H](F)CCO4)cc2n1 [Compound 274]	192	22.22	8.9
COCC1(c2cccc(-c3ccc4cnc(CNC(=O)c5cc(F)c6c(c5)S(=O)(=O)[C@@H](F)CCO6)cc4n3)n2)CC1 [Compound 275]	128	14.02	9.1
O=C(NCc1cc2nc(N3CCOc4cc(N5CC6CC6C5)cnc43)ccc2cn1)c1cc(F)c2c(c1)S(=O)(=O)[C@@H](F)CCO2 (stereo partly drawn) [Compound 276]	132	14.41	9.1
O=C(NCc1cc2nc(N3CCOc4ccc([C@H]5C[C@H]5F)nc43)ccc2cn1)c1cc(F)c2c(c1)S(=O)(=O)[C@@H](F)CCO2 [Compound 277]	90	19.61	9.1
C[C@H](NC(=O)c1cc(F)c2c(c1)S(=O)(=O)[C@@H](F)COC2)c1cc2nc(N3CCOc4cc(C5CC5)cnc43)ccc2cn1 [Compound 278]	75.5	9.67	9.2
O=C(NCc1cc2nc(N3CCOc4ccc([C@H](F)CF)nc43)ccc2cn1)c1cc(F)c2c(c1)S(=O)(=O)[C@@H](F)CCO2 [Compound 279]	164	18.19	9.2
COc1ccc(-c2ccc3cnc(CNC(=O)c4cc(F)c5c(c4)S(=O)(=O)[C@@H](F)COC5)cc3n2)nc1[C@H]1CC1(F)F [Compound 280]	106	11.58	9.2
C#Cc1cnc2c(c1)OCCN2c1ccc2cnc(CNC(=O)c3cc(F)c4c(c3)S(=O)(=O)[C@@H](F)CCO4)cc2n1 [Compound 281]	94.3	10.16	9.3
O=C(NCc1cc2nc(N3CCOc4cc(F)cnc43)ccc2cn1)c1cc(F)c2c(c1)S(=O)(=O)[C@@H](F)CCO2 [Compound 282]	163	17.58	9.4
O=C(NCc1cc2cc(-c3cncc(C4CCC4)n3)ccc2cn1)c1cc(F)c2c(c1)S(=O)(=O)[C@@H](F)CCO2 [Compound 283]	385	28.86	9.4
C[C@@H]1CN(c2cnc3c(c2)OCCN3c2ccc3cnc(CNC(=O)c4cc(F)c5c(c4)S(=O)(=O)[C@@H](F)CCO5)cc3n2)C[C@@H]1F [Compound 284]	105	11.05	9.5
O=C(NCc1cc2nc(N3CCOc4c(N5CC(F)C5)ccnc43)ccc2cn1)c1cc(F)c2c(c1)S(=O)(=O)[C@@H](F)CCO2 [Compound 285]	94.6	9.97	9.5
O=C(NCc1cc2nc(N3CCOc4cc(N5CCC[C@H](F)C5)cnc43)ccc2cn1)c1cc(F)c2c(c1)S(=O)(=O)[C@@H](F)CCO2 [Compound 286]	196	20.51	9.6
